# Measurements as given in patent US8669233B2, “Combination of compounds for treating or preventing skin diseases” (Galderma Research & Development, priority 2009, dated 2014).
# How the values were obtained:
# [1] = tested on: arachidonic acid-induced mouse ear edema; assay: Arachidonic acid-induced mouse ear edema test, single topical application; type: in vivo, Balb/c mice; details: 4% arachidonic acid
# Protocol: Evaluation of the Anti-Inflammatory Activity of Ivermectin and of Brimonidine after a Single Topical Application in the Arachidonic Acid-Induced Mouse Ear Edema Test on Balb/c Mice
# Arachidonic acid is dissolved in a mixture of THF/methanol at 4%.
# Ivermectin is dissolved in the solution of arachidonic acid (AA) and tested at the concentration of 1%.
# 20 μl of the solution are applied to the internal surface of the right ear.
# The thickness of the ear is measured at T+1 h, T+2 h and T+4 h.
# FIG. 1 represents the average measurement of the thickness of the ear edema, i.e. the average measurement of the thickness of the ear after treatment, from which is subtracted the average measurement of the thickness of the ear obtained with the control (nontreated) group, this being after treatment with 4% arachidonic acid ( ? ), 1% ivermectin (□), 0.2% brimonidine ( ? ), and the combination of ivermectin and brimonidine ( ? ).
# [2] = tested on: TPA-induced mouse ear edema; assay: TPA-induced mouse ear edema test, single topical application; type: in vivo, Balb/c mice; details: TPA 0.01%, T+6 h; for reduction in the ear edema (TPA): single topical application
# Protocol: The test compounds are diluted in the TPA solution. […] Brimonidine is added at the concentration of 0.2%. […] FIG. 2 represents the average measurement of the ear edema thickness as a function of the dose of test compound as %, i.e. the average measurement of the ear thickness after treatment, from which is subtracted the average measurement of the thickness of the ear obtained with the control (nontreated) group, […]
compound,measurement,setting,value
COc1ccc2c(c1)c(CC(=O)O)c(C)n2C(=O)c1ccc(Cl)cc1 [Indomethacin],inhibition of the ear edema caused by arachidonic acid,"[1]; indomethacin at 5%, topical, Balb/c mice",95%
Brc1c(NC2=NCCN2)ccc2nccnc12 [brimonidine],reduction of the mouse ear edema (TPA),[2]; brimonidine alone 0.2%,50%
"CCCCC(=O)O[C@]1(C(=O)CO)[C@@H](C)C[C@H]2[C@@H]3CCC4=CC(=O)C=C[C@]4(C)[C@@]3(F)[C@@H](O)C[C@@]21C [β-methasone valerate (BMV), β-methasone valerate]",inhibition of the mouse ear edema (TPA),[2]; BMV at 0.01%,89%
Ivermectin,reduction in the ear edema (TPA),[2]; ivermectin 0.3%,57%
same,reduction in the ear edema (TPA),[2]; ivermectin 1%,90%
same,reduction of the ear edema caused by arachidonic acid,"[1]; ivermectin alone 1%, single topical application",56%
